# Laboratory results reported in PMC12136037, “Type II kinase inhibitors that target Parkinson’s disease–associated LRRK2” (Science Advances, 2025).
# “And” between values parts separate entries of the source, which are not always exact repeats. Equal entries are not always repeated. Where two headings read alike, the source gives them in different places.
# Key:
# JNK3 = molecular target: T1, JNK3 (Homo sapiens, UniProt P53779); assay: nanoBRET off-target validation; format: cell-based
# T1 construct: host or cells: HEK293T (ATCC CRL-3216)
# T1 sequence (P53779 whole entry): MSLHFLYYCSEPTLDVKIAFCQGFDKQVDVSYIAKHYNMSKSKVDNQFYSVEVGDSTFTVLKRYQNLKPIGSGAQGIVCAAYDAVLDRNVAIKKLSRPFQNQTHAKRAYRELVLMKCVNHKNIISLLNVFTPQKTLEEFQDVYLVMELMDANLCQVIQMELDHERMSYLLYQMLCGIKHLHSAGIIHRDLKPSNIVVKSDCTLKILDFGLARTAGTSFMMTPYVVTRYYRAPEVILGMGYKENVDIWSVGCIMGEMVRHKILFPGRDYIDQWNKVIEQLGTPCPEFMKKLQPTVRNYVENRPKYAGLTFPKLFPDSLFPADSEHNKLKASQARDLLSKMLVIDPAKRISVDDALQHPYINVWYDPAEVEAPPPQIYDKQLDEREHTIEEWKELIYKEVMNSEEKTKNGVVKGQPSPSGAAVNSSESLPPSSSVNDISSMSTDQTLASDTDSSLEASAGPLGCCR
# Method: (§1) The assay was performed as described previously ([61]). In brief, full-length kinases as listed in table S6 were obtained as plasmids cloned in frame with terminal NanoLuc-fusion (gift from Promega; table S6). […] Serially diluted inhibitor and corresponding tracer as listed in table S6 at the Tracer KD concentration taken from TracerDB (tracerdb.org) ([62]) were pipetted into white 384-well plates (Greiner, 781207) using an ECHO acoustic dispenser (Labcyte). The corresponding protein-transfected cells were added and reseeded at a density of 2 × 10^5 cells/ml after trypsinization and resuspending in Opti-MEM without phenol red (Life Technologies). The system was allowed to equilibrate for 3 hours at 37°C/5% CO2 before bioluminescence resonance energy transfer (BRET) measurements. To measure BRET, NanoBRET NanoGlo Substrate + extracellular NanoLuc Inhibitor (Promega, N2540) was added as per the manufacturer’s protocol, and filtered luminescence was measured on a PHERAstar plate reader (BMG Labtech) equipped with a luminescence filter pair [450-nm BP filter (donor) and 610-nm LP filter (acceptor)]. […] (For step-by-step protocol, see www.eubopen.org/sites/www.eubopen.org/files/attachments/2021/NanoBRET-IC50_v1_0.pdf.)
# DDR2 = molecular target: T2, DDR2 (Homo sapiens, UniProt Q16832); assay: nanoBRET off-target validation; format: cell-based
# T2 construct: host or cells: HEK293T (ATCC CRL-3216)
# T2 sequence (Q16832 22-855): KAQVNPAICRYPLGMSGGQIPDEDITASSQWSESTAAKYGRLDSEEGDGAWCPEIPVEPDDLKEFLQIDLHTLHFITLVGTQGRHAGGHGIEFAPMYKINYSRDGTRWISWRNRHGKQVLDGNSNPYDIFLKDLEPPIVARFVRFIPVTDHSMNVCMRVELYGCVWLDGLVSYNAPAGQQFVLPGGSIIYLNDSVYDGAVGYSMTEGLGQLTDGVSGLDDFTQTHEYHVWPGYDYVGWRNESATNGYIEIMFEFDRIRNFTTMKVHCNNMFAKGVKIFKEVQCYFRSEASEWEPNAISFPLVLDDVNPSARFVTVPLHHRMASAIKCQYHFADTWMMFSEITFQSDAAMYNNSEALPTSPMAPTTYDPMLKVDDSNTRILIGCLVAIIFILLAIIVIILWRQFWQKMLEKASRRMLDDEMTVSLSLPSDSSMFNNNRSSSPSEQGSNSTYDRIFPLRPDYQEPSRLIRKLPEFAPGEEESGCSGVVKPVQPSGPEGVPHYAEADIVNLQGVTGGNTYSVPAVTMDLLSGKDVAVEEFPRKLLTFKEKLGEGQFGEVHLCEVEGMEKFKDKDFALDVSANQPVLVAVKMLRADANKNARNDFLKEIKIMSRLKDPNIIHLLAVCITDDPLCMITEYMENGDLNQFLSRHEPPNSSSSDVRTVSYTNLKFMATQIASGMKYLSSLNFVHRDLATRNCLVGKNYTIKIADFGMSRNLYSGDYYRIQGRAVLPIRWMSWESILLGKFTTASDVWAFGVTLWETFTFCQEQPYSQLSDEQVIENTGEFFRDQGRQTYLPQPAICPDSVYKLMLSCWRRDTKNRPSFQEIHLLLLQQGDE
# Method: as §1
compound,measurement,setting,value
CCSc1nc(NC)c2c(-c3cccc(NC(=O)Nc4cc(C(C)(C)C)nn4-c4ccc(C)cc4)c3)c[nH]c2n1 [Compound 32],EC50,JNK3,15 µM
same,nanoBRET response normalized to 0% (no tracer) and 100% (no inhibitor) control,"JNK3; JNK3, inhibitor 8 nM, two replicates, listed as RN341, 0.008 µM",99.6644%
same,remaining nanoBRET tracer signal at 0.008 µM,"JNK3; JNK3, inhibitor 8 nM, two replicates, read-out: nanoBRET response normalized to 0% (no tracer) and 100% (no inhibitor) control",90%
same,nanoBRET response normalized to 0% (no tracer) and 100% (no inhibitor) control,"JNK3; JNK3, inhibitor 16 nM, two replicates, listed as RN341, 0.016 µM",91.5832%
same,remaining nanoBRET tracer signal at 0.016 µM,"JNK3; JNK3, inhibitor 16 nM, two replicates, read-out: nanoBRET response normalized to 0% (no tracer) and 100% (no inhibitor) control",91.5%
same,nanoBRET response normalized to 0% (no tracer) and 100% (no inhibitor) control,"JNK3; JNK3, inhibitor 50 nM, two replicates, listed as RN341, 0.05 µM",98.9095%
same,remaining nanoBRET tracer signal at 0.05 µM,"JNK3; JNK3, inhibitor 50 nM, two replicates, read-out: nanoBRET response normalized to 0% (no tracer) and 100% (no inhibitor) control",96.2%
same,nanoBRET response normalized to 0% (no tracer) and 100% (no inhibitor) control,"JNK3; JNK3, inhibitor 250 nM, two replicates, listed as RN341, […]",99.8628%
same,remaining nanoBRET tracer signal at […],"JNK3; JNK3, inhibitor 250 nM, two replicates, read-out: nanoBRET response normalized to 0% (no tracer) and 100% (no inhibitor) control",96.3%
same,nanoBRET response normalized to 0% (no tracer) and 100% (no inhibitor) control,"JNK3; JNK3, inhibitor 500 nM, two replicates, listed as RN341, 0.5 µM",92.6932%
same,remaining nanoBRET tracer signal at 0.5 µM,"JNK3; JNK3, inhibitor 500 nM, two replicates, read-out: nanoBRET response normalized to 0% (no tracer) and 100% (no inhibitor) control",93.9%
same,nanoBRET response normalized to 0% (no tracer) and 100% (no inhibitor) control,"JNK3; JNK3, inhibitor 2500 nM, two replicates, listed as RN341, […]",84.3032%
same,remaining nanoBRET tracer signal at […],"JNK3; JNK3, inhibitor 2500 nM, two replicates, read-out: nanoBRET response normalized to 0% (no tracer) and 100% (no inhibitor) control",90.4%
same,nanoBRET response normalized to 0% (no tracer) and 100% (no inhibitor) control,"JNK3; JNK3, inhibitor 5000 nM, two replicates, listed as RN341, 5 µM",67.4443%
same,remaining nanoBRET tracer signal at 5 µM,"JNK3; JNK3, inhibitor 5000 nM, two replicates, read-out: nanoBRET response normalized to 0% (no tracer) and 100% (no inhibitor) control",74.7%
same,nanoBRET response normalized to 0% (no tracer) and 100% (no inhibitor) control,"JNK3; JNK3, inhibitor 25000 nM, two replicates, listed as RN341, 25 µM",34.5338%
same,remaining nanoBRET tracer signal at 25 µM,"JNK3; JNK3, inhibitor 25000 nM, two replicates, read-out: nanoBRET response normalized to 0% (no tracer) and 100% (no inhibitor) control",48.6%
same,EC50,DDR2,> 20 µM
same,remaining tracer BRET signal at 0.008 µM,"DDR2; DDR2, inhibitor 8 nM, two replicates, read-out: nanoBRET response normalized to 0% (no tracer) and 100% (no inhibitor) control",102% and 95.3%
same,nanoBRET response normalized to 0% (no tracer) and 100% (no inhibitor) control,"DDR2; DDR2, inhibitor 16 nM, two replicates, listed as RN341, 0.016 µM",102.202%
same,remaining tracer BRET signal at 0.016 µM,"DDR2; DDR2, inhibitor 16 nM, two replicates, read-out: nanoBRET response normalized to 0% (no tracer) and 100% (no inhibitor) control",105%
same,nanoBRET response normalized to 0% (no tracer) and 100% (no inhibitor) control,"DDR2; DDR2, inhibitor 50 nM, two replicates, listed as RN341, 0.05 µM",98.4821%
same,remaining tracer BRET signal at 0.05 µM,"DDR2; DDR2, inhibitor 50 nM, two replicates, read-out: nanoBRET response normalized to 0% (no tracer) and 100% (no inhibitor) control",114%
same,nanoBRET response normalized to 0% (no tracer) and 100% (no inhibitor) control,"DDR2; DDR2, inhibitor 250 nM, two replicates, listed as RN341, […]",104.362%
same,remaining tracer BRET signal at […],"DDR2; DDR2, inhibitor 250 nM, two replicates, read-out: nanoBRET response normalized to 0% (no tracer) and 100% (no inhibitor) control",123%
same,nanoBRET response normalized to 0% (no tracer) and 100% (no inhibitor) control,"DDR2; DDR2, inhibitor 500 nM, two replicates, listed as RN341, 0.5 µM",117.148%
same,remaining tracer BRET signal at 0.5 µM,"DDR2; DDR2, inhibitor 500 nM, two replicates, read-out: nanoBRET response normalized to 0% (no tracer) and 100% (no inhibitor) control",129%
same,nanoBRET response normalized to 0% (no tracer) and 100% (no inhibitor) control,"DDR2; DDR2, inhibitor 2500 nM, two replicates, listed as RN341, […]",86.9292%
same,remaining tracer BRET signal at […],"DDR2; DDR2, inhibitor 2500 nM, two replicates, read-out: nanoBRET response normalized to 0% (no tracer) and 100% (no inhibitor) control",103%
same,nanoBRET response normalized to 0% (no tracer) and 100% (no inhibitor) control,"DDR2; DDR2, inhibitor 5000 nM, two replicates, listed as RN341, 5 µM",105.865%
same,remaining tracer BRET signal at 5 µM,"DDR2; DDR2, inhibitor 5000 nM, two replicates, read-out: nanoBRET response normalized to 0% (no tracer) and 100% (no inhibitor) control",89.9%
same,nanoBRET response normalized to 0% (no tracer) and 100% (no inhibitor) control,"DDR2; DDR2, inhibitor 25000 nM, two replicates, listed as RN341, 25 µM",54.8632%
same,remaining tracer BRET signal at 25 µM,"DDR2; DDR2, inhibitor 25000 nM, two replicates, read-out: nanoBRET response normalized to 0% (no tracer) and 100% (no inhibitor) control",55.4%
